Experimental data: patent US4861788A, “Antibacterial 1-normon-2-yl-heterocyclic compounds” (Beecham Group plc, priority 1983, dated 1989)
Values after ≈ are worked out from the molar mass of the structure shown. Read-outs that look alike come from different tables or passages of the source.

Tests used:
M. hyopneumoniae JF 435 = experiment: MIC against Mycoplasma in vitro (Friis broth with agarose); type: cell-based; conditions: Mesomycoplasma hyopneumoniae, JF435, 144 h
M. hyopneumoniae Str. 11 = experiment: as above; type: cell-based; conditions: Mesomycoplasma hyopneumoniae, 144 h; M. hyopneumoniae Str. 11; 6 days at 37° C; read-out: MIC
[1] = tested on: M. hyopneumoniae J2206/183^b; experiment: as above; type: cell-based; conditions: Mesomycoplasma hyopneumoniae, 144 h; M. hyopneumoniae J2206/183^b; 6 days at 37° C; read-out: MIC
M. hyopneumoniae UCD 1 = experiment: as above; type: cell-based; conditions: Mesomycoplasma hyopneumoniae, UCD1, 144 h; M. hyopneumoniae UCD 1; 6 days at 37° C; read-out: MIC
M. hyopneumoniae TAM 6N = experiment: as above; type: cell-based; conditions: Mesomycoplasma hyopneumoniae, TAM6N, 144 h
M. hyorhinis ATCC 23234 = experiment: as above; type: cell-based; conditions: Mesomycoplasma hyorhinis, ATCC23234, 144 h; M. hyorhinis ATCC 23234; 6 days at 37° C; read-out: MIC
M. gallisepticum S6 = experiment: as above; type: cell-based; conditions: Mycoplasmoides gallisepticum
M. pneumoniae ATCC 15492 = experiment: as above; type: cell-based; conditions: Mycoplasmoides pneumoniae, ATCC15492, 144 h
Bacillus subtilis 6633 = experiment: MIC against human bacteria in vitro (nutrient agar, chocolated horse blood); type: cell-based; conditions: human; Bacillus subtilis 6633; 18 hours at 37° C; read-out: MIC
Procedure: (§1) The activity of the normonyl derivaties of the Examples against various bacteria which are important in diseases of humans, was assayed in vitro using serial dilutions in nurient agar with 5% chocolated horse blood.

[2] = tested on: Corynebacterium xerosis 9755; experiment: as above; type: cell-based; conditions: human; Corynebacterium xerosis 9755; 18 hours at 37° C; read-out: MIC
Procedure: as §1

E. coli ESS = experiment: as above; type: cell-based; conditions: Escherichia coli; human; E. coli ESS; 18 hours at 37° C; read-out: MIC
Procedure: as §1

E. coli NCTC 10418 = experiment: as above; type: cell-based; conditions: Escherichia coli, NCTC10418; human; E. coli NCTC 10418; 18 hours at 37° C; read-out: MIC
Procedure: as §1

[3] = tested on: Haemophilus influenzae Wy21; experiment: as above; type: cell-based; conditions: Haemophilus influenzae, WY21, 18 h
Procedure: as §1

K. aerogenes A = experiment: as above; type: cell-based; conditions: Klebsiella aerogenes; human; K. aerogenes A; 18 hours at 37° C; read-out: MIC
Procedure: as §1

P. mirabilis 889 = experiment: as above; type: cell-based; conditions: Proteus mirabilis; human; P. mirabilis 889; 18 hours at 37° C; read-out: MIC
Procedure: as §1

[4] = tested on: Pasteurella multocida 1633; experiment: as above; type: cell-based; conditions: human; Pasteurella multocida 1633; 18 hours at 37° C; read-out: MIC
Procedure: as §1

[5] = tested on: Ps. aeruginosa NCTC 10662; experiment: as above; type: cell-based; conditions: Pseudomonas aeruginosa, NCTC10662; human; Ps. aeruginosa NCTC 10662; 18 hours at 37° C; read-out: MIC
Procedure: as §1

Staph. aureus Oxford [6] = experiment: as above; type: cell-based; conditions: Staphylococcus aureus; human; Staph. aureus Oxford; 18 hours at 37° C; read-out: MIC
Procedure: as §1

Staph. aureus Russell = experiment: as above; type: cell-based; conditions: Staphylococcus aureus; human; Staph. aureus Russell; 18 hours at 37° C; read-out: MIC
Procedure: as §1

Staph. aureus W2827 = experiment: as above; type: cell-based; conditions: Staphylococcus aureus; human; Staph. aureus W2827; 18 hours at 37° C; read-out: MIC
Procedure: as §1

Strep. agalactiae 2788-B = experiment: as above; type: cell-based; conditions: Streptococcus agalactiae; human; Strep. agalactiae 2788-B; 18 hours at 37° C; read-out: MIC
Procedure: as §1

Strep. faecalis I = experiment: as above; type: cell-based; conditions: Enterococcus faecalis; human; Strep. faecalis I; 18 hours at 37° C; read-out: MIC
Procedure: as §1

[7] = tested on: Strep. pyogenes R80/421-A; experiment: as above; type: cell-based; conditions: Streptococcus pyogenes; human; Strep. pyogenes R80/421-A; 18 hours at 37° C; read-out: MIC
Procedure: as §1

Strep. spp. 64/848-C = experiment: as above; type: cell-based; conditions: human; Strep. spp. 64/848-C; 18 hours at 37° C; read-out: MIC
Procedure: as §1

S. typhimurium S18 = experiment: MIC against veterinary bacteria in vitro (Diagnostic Sensitivity Test Agar); conditions: Salmonella enterica, 18 h
Procedure: (§2) The activity of the normonyl derivatives of the Examples against various veterinarily important bacteria, was assayed in vitro using two-fold serial dilutions in Diagnostic Sensitivity Test Agar inoculated with 10^4 organisms.

Past. haemolytica PA5 = experiment: as above; conditions: Mannheimia haemolytica, PA5, 18 h
Procedure: as §2

[8] = tested on: Corynebacterium pyogenes CY1; experiment: as above; conditions: CY1, 18 h
Procedure: as §2

[9] = tested on: Staph. aureus B4 (pen. resistant); experiment: as above; conditions: Staphylococcus aureus, 18 h
Procedure: as §2

[10] = tested on: Staph. aureus 152 (pen. sens); experiment: as above; conditions: Staphylococcus aureus, 18 h
Procedure: as §2

Staph. aureus Oxford [11] = experiment: as above; conditions: Staphylococcus aureus, 18 h
Procedure: as §2

[12] = tested on: Strep. suis (group D) SPS11; experiment: as above; conditions: Streptococcus suis, 18 h
Procedure: as §2

Strep. dysgalactiae SPD1 = experiment: as above; conditions: Streptococcus dysgalactiae, SPD1, 18 h
Procedure: as §2

Sarcina lutea 8340 = experiment: MIC against human bacteria in vitro (nutrient agar, chocolated horse blood); type: cell-based; conditions: Micrococcus luteus; human; Sarcina lutea 8340; 18 hours at 37° C; read-out: MIC
Procedure: as §1

CC(=Cc1nnc(-c2cccc([N+](=O)[O-])c2)o1)CC1OCC(CC2OC2C(C)C(C)O)C(O)C1O (centres unmarked) [Example 2, 2-m-Nitrophenyl-5-(1-normon-2-yl)-1,3,4-oxadiazole A]
MIC (M. hyopneumoniae JF 435): 0.05 µg/mL (≈ 0.102 µM)
MIC (M. hyopneumoniae Str. 11): 0.025 µg/mL (≈ 0.0511 µM)
MIC [1]: 0.025 µg/mL (≈ 0.0511 µM)
MIC (M. hyopneumoniae UCD 1): 0.025 µg/mL (≈ 0.0511 µM)
MIC (M. hyopneumoniae TAM 6N): 0.05 µg/mL (≈ 0.102 µM)
MIC (M. hyorhinis ATCC 23234): 0.025 µg/mL (≈ 0.0511 µM)
MIC (M. gallisepticum S6; 144 h, M. gallisepticum S6, 6 days at 37° C, read-out: MIC): > 10 µg/mL
MIC (M. pneumoniae ATCC 15492; M. pneumoniae ATCC 15492, 6 days at 37° C, read-out: MIC): 2.5 µg/mL (≈ 5.11 µM)
MIC (Bacillus subtilis 6633): 4 µg/mL (≈ 8.17 µM)
MIC [2]: > 128 µg/mL
MIC (E. coli ESS): 4 µg/mL (≈ 8.17 µM)
MIC (E. coli NCTC 10418): > 128 µg/mL
MIC [3]: 0.5 µg/mL (≈ 1.02 µM)
MIC (K. aerogenes A): > 128 µg/mL
MIC (P. mirabilis 889): > 128 µg/mL
MIC [4]: 2 µg/mL (≈ 4.09 µM)
MIC [5]: > 128 µg/mL
MIC (Staph. aureus Oxford [6]): 16 µg/mL (≈ 32.7 µM)
MIC (Staph. aureus Russell): 64 µg/mL (≈ 131 µM)
MIC (Staph. aureus W2827): 64 µg/mL (≈ 131 µM)
MIC (Strep. agalactiae 2788-B): 32 µg/mL (≈ 65.4 µM)
MIC (Strep. faecalis I): > 128 µg/mL
MIC [7]: 4 µg/mL (≈ 8.17 µM)
MIC (Strep. spp. 64/848-C): 32 µg/mL (≈ 65.4 µM)
MIC (S. typhimurium S18): > 80 µg/mL
MIC (Past. haemolytica PA5): 10 µg/mL (≈ 20.4 µM)
MIC [8]: > 80 µg/mL
MIC [9]: 5 µg/mL (≈ 10.2 µM)
MIC [10]: 10 µg/mL (≈ 20.4 µM)
MIC (Staph. aureus Oxford [11]): 20 µg/mL (≈ 40.9 µM)
MIC [12]: > 80 µg/mL
MIC (Strep. dysgalactiae SPD1): 5 µg/mL (≈ 10.2 µM)

CC(=Cc1nnc(-c2ccncc2)o1)CC1OCC(CC2OC2C(C)C(C)O)C(O)C1O (centres unmarked) [Example 7, 2-(1-Normon-2-yl)-5-(4-pyridyl)-1,3,4-oxadiazole A]
MIC (M. hyopneumoniae JF 435; M. hyopneumoniae JF 435, 6 days at 37° C, read-out: MIC): 2.5 µg/mL (≈ 5.61 µM)
MIC (M. hyopneumoniae Str. 11): 0.5 µg/mL (≈ 1.12 µM)
MIC [1]: 2.5 µg/mL (≈ 5.61 µM)
MIC (M. hyopneumoniae UCD 1): 1 µg/mL (≈ 2.24 µM)
MIC (M. hyopneumoniae TAM 6N; M. hyopneumoniae TAM 6N, 6 days at 37° C, read-out: MIC): 2.5 µg/mL (≈ 5.61 µM)
MIC (M. hyorhinis ATCC 23234): 0.5 µg/mL (≈ 1.12 µM)
MIC (M. gallisepticum S6; S6, 144 h): > 10 µg/mL
MIC (M. pneumoniae ATCC 15492): > 10 µg/mL
MIC (Bacillus subtilis 6633): 2 µg/mL (≈ 4.49 µM)
MIC (E. coli ESS): 64 µg/mL (≈ 144 µM)
MIC (E. coli NCTC 10418): > 128 µg/mL
MIC [3]: 1 µg/mL (≈ 2.24 µM)
MIC (K. aerogenes A): 128 µg/mL (≈ 287 µM)
MIC [4]: > 128 µg/mL
MIC [5]: > 128 µg/mL
MIC (Sarcina lutea 8340): > 128 µg/mL
MIC (Staph. aureus Oxford [6]): 2 µg/mL (≈ 4.49 µM)
MIC (Staph. aureus Russell): 32 µg/mL (≈ 71.8 µM)
MIC (Staph. aureus W2827): 32 µg/mL (≈ 71.8 µM)
MIC (Strep. agalactiae 2788-B): 8 µg/mL (≈ 18 µM)
MIC (Strep. faecalis I): > 128 µg/mL
MIC (Strep. spp. 64/848-C): 8 µg/mL (≈ 18 µM)
MIC (S. typhimurium S18): > 80 µg/mL
MIC (Past. haemolytica PA5): 20 µg/mL (≈ 44.9 µM)
MIC [8]: > 80 µg/mL
MIC [9]: 10 µg/mL (≈ 22.4 µM)
MIC [10]: 10 µg/mL (≈ 22.4 µM)
MIC (Staph. aureus Oxford [11]): > 80 µg/mL
MIC [12]: > 80 µg/mL
MIC (Strep. dysgalactiae SPD1): 10 µg/mL (≈ 22.4 µM)
